Data on one molecule can be found in patent US20070172912A1, “Method for fluorescently staining tissue” (PENTAX Corporation, priority 2006, published 2007).

This series deals with slices of the large intestines. The experiment in a line: Degree of permeation of staining solution in slices of large intestines, varying pH. Set-up: species or system rat. To be noted: 0.1 mg/mL, pH 4.0, 5.0, 6.0, 7.0 and saline. The protocol: Slices of the large intestines used in Example 4 were observed, and the degree of permeation of a staining solution was observed. Fluorescein sodium was adjusted to 0.1 mg/mL in the same way as in Example 4 by dilution with solutions with pH 4.0, 5.0, 6.0, and 7.0 and a saline. Imaging was performed with a fluorescence microscope (manufactured by ZEISS, LSM510) under imaging conditions including a pinhole diameter of 1.0 and Max, and 20× and 40× lenses were used.

Consider `O=C1OC2(c3ccc(O)cc3Oc3cc(O)ccc32)c2ccccc21` [F—Na, fluorescein sodium], for which the “difference in the degree of permeation into the tissues between staining solutions with varying pH” value is given as “no significant difference”.
